The text below walks through data of patent US8466195B2, “Methods and compositions for treating complications of diabetes and vascular diseases using flavones” (Salk Institute for Biological Studies, priority 2009, dated 2013).

Structures are written as SMILES.

Common to all, as to assay type: cell-based
Data set [1] deals with cells treated with 20 μM iodoacetic acid (IAA). The data set can be described thus: In vitro ischemia (iodoacetic acid, MTT cell viability). Particulars: 20 μM IAA 2 h, MTT 20 h later. The method, then: Briefly, cells were seeded onto 96-well microtiter plates at a density of 5×10^3 cells per well. The next day, the medium was replaced with DMEM supplemented with 7.5% DFCS and the cells were treated with 20 μM iodoacetic acid (IAA) alone or in the presence of the different fisetin derivatives. After 2 h the medium in each well was aspirated and replaced with fresh medium without IAA but containing the fisetin derivatives. 20 h later, the medium in each well was aspirated and replaced with fresh medium containing 2.5 μg/ml MTT. After 4 h of incubation at 37° C., cells were solubilized with 100 μl of a solution containing 50% dimethylformamide and 20% SDS (pH 4.7). The absorbance at 570 nm was measured on the following day with a microplate reader (Molecular Devices). Results obtained from the MTT assay correlated directly with the extent of cell death as confirmed visually. Controls included compound alone to test for toxicity and compound with no cells to test for interference with the assay chemistry.

A further data set relates to HT22 cells. In words: Oxidative glutamate toxicity (MTT cell viability). As to conditions: Mus musculus, HT-22; 5 mM glutamate, 24 hours, MTT; read-out: EC50 oxid. glut. tox. Here is the method: Cell viability was determined by a modified version of 3-(4,5-dimethylthiazol-2-yl)-2,5-diphenyl tetrazolium bromide (MTT) assay based on the standard procedure (Hansen M B et al. J. Immunol. Methods 119:203-210, 1989). Briefly, cells were seeded onto 96-well microtiter plates at a density of 5×10^3 cells per well. The next day, the medium was replaced with DMEM supplemented with 7.5% DFCS and the cells were treated with the different fisetin derivatives alone or in the presence of 5 mM glutamate. Twenty four hours later, the medium in each well was aspirated and replaced with fresh medium containing 2.5 μg/ml MTT. After 4 hours of incubation at 37° C., cells were solubilized with 100 μA of a solution containing 50% dimethylformamide and 20% SDS (pH 4.7). The absorbance at 570 nm was measured on the following day with a microplate reader (Molecular Devices). Results obtained from the MTT assay correlated directly with the extent of cell death as confirmed visually. Controls employing wells without cells were used to determine the effects of the agents upon the assay chemistry.
As shown in panel (A) of FIG. 3, HT22 cells were untreated (ct) or treated with 10 μM fisetin (fis) in the absence of presence of 5 mM glutamate for 24 hr and GSH was measured enzymatically and normalized to protein. As shown in panel (B) of FIG. 3, HT22 cells in 96-well plates were treated with 5 mM glutamate and the indicated concentrations of fisetin. MTT reduction was measured after 24 hr.

Another data set concerns HT-22 nerve cells. The data set can be described thus: HT-22 nerve cells exposed to glutamate: MG adducts and viability. The method, then: HT-22 nerve cells were exposed to 0.5 mM glutamate and Glo-1 expression monitored at 8 and 24 hrs. In panel (B) of FIG. 2, Fisetin is shown to prevent both cell death and protein glycation. HT-22 cells were exposed to 5 mM glutamate in the presence or absence of 2 μM fisetin. MG adducts were determined by Western blotting 8 hrs after glutamate exposure and viability after 24 hrs. Actin is at the bottom of the blot. In panel (C) of FIG. 2, the Glo-1 inhibitor s-p-bromobenzylglutathione […] is shown to potentiate cell death. HT-22 cells were exposed to 1 mM glutamate plus or minus 10 or 20 μM BBGD.

By EC50 is commonly meant the concentration at which the effect is half-maximal. Turning to `CCOc1ccc(-c2oc3cc(OC)c(OC)cc3c(=O)c2O)cc1OCC`, the EC50 is above 1000 nM in data set [1] and below 10000 nM in the data set with HT22 cells. Regarding `CCOc1ccc(-c2cc(=O)c3cc(C)c(C)cc3o2)cc1OCC`, the EC50 in data set [1] is above 1000 nM. As for `COc1cc2oc(-c3ccc(O)c(O)c3)cc(=O)c2cc1OC`, the EC50 is below 1000 nM in data set [1] and below 10000 nM in the data set with HT22 cells. Consider `COc1cccc(-c2oc3cc(OC)c(OC)cc3c(=O)c2O)c1`, for which the EC50 in data set [1] was 1000 nM; in the data set with HT22 cells, below 10000 nM. In the case of `CCOc1ccc(-c2oc3cc(C)c(C)cc3c(=O)c2O)cc1OCC`, the EC50 is below 1000 nM in data set [1] and below 10000 nM with HT22 cells.

Turning to `COc1cc2oc(-c3ccc(O)c(O)c3)c(O)c(=O)c2cc1OC`, the figures for the EC50 (in data set [1]; in the data set with HT22 cells) were above 1000 nM and below 10000 nM, respectively.

As to `Cc1cc2oc(-c3ccc(O)c(O)c3)c(O)c(=O)c2cc1C`, the EC50 is below 1000 nM in data set [1] and below 10000 nM in the data set on HT22 cells.

As for `Cc1cc2oc(-c3ccc(O)c(O)c3)cc(=O)c2cc1C`, the EC50 in data set [1] is below 1000 nM; with HT22 cells, below 10000 nM. Take `O=c1cc(-c2ccc(O)c(O)c2)oc2cc(O)c(O)cc12`: the results for the EC50 (in data set [1]; with HT22 cells) were above 1000 nM and above 10000 nM, respectively. In the case of `O=c1c(O)c(-c2ccc(O)c(O)c2)oc2cc(O)c(O)cc12`, the EC50 was above 1000 nM in data set [1] and below 10000 nM in the data set on HT22 cells. Turning to `N[C@@H](CCC(=O)N[C@@H](CSCc1ccc(Br)cc1)C(=O)NCC(=O)O)C(=O)O` [BBGD, s-p-bromobenzylglutathione, reference compound], the “toxicity in the absence of glutamate” value with HT-22 nerve cells (20 μM BBGD, no glutamate) is recorded as “only mildly toxic”. In the data set with HT-22 nerve cells (1 mM glutamate plus 10 or 20 μM BBGD), the “cell death in the presence of glutamate” value is “greatly potentiates cell death”.

In the case of `O=c1c(O)c(-c2ccc(O)c(O)c2)oc2cc(O)ccc12` [drawing 10], the EC50 was above 1000 nM in data set [1] and below 10000 nM in the data set on HT22 cells.
